# Source: US5726179A, “Muscarinic agonists” (The University of Toledo, priority 1996, dated 1998)
# Where a name gives a salt, the structure may show the parent alone.
# Legend:
# muscarinic receptors [1] = assay: Binding affinity at muscarinic receptors in rat central nervous system, ligand [3H]-QNB; conditions: rat CNS; mean from one to three experiments, each in triplicate
# Text: Data represent the mean from one
# to three experiments, each performed in triplicate.
# muscarinic receptors [2] = assay: PI cortex: agonist activity at muscarinic receptors in rat central nervous system; format: biochemical; conditions: mean from one to three experiments, each in triplicate
# M2 receptors = conditions: background; cited from earlier work
# experimental animals = conditions: background, cited from earlier work; for reverse cognitive impairments in experimental animals: natural product agonist ligands
# M3 receptors = conditions: background; cited from earlier work
Compound,PI cortex (at 100 μM) (muscarinic receptors [2]) [%],further results
"5-(3-Methylpropynyloxycarbonyl)-1,4,5,6-tetrahydropyrimidine HCl [CDD-0177-A]",22 ± 3,IC50 (muscarinic receptors [1]): 45 µM
CCN(CC)CC1CCCCN1CC(=O)N1c2ccccc2C(=O)Nc2cccnc21 (stereo not drawn) [AF-DX 116],,selective antagonist for M2 receptors (M2 receptors): selective antagonists
"C#C/C(C)=C/COC(=O)C1CN=CNC1 (stereo not drawn) [CDD-0161-A, (trans)-5-(3-Methyl-2-penten-4-ynyloxycarbonyl)-1,4,5,6-tetrahydropyrimidine HCl]",35 ± 5.6,
"C#C/C(C)=C\COC(=O)C1CN=CNC1 (stereo not drawn) [CDD-0162-A, (cis)-5-(3-Methyl-2-penten-4-ynyloxycarbonyl)-1,4,5,6-tetrahydropyrimidine HCl]",50 ± 4.3,
"CC#CCOC(=O)C1CN=CNC1.Cl (stereo not drawn) [CDD-0171-A, 5-(2-Butynyloxycarbonyl)-1,4,5,6-tetrahydropyrimidine HCl]",140,
O=C(OCC#Cc1ccccc1)C1CN=CNC1 (stereo not drawn) [CDD-0189-A],3 ± 8.2,
C#CCCOC(=O)C1CN=CNC1 (stereo not drawn) [CDD-0195-A],100 ± 15,
COC(=O)C1=CCCN(C)C1 [arecoline],,reverse cognitive impairments in experimental animals (experimental animals): reverse cognitive impairments
O[Si](CCCN1CCCCC1)(c1ccc(F)cc1)C1CCCCC1 (stereo not drawn) [p-F-hexahydrosiladifenidol],,selective antagonist for M3 receptors (M3 receptors): selective antagonists
CC[C@@H]1C(=O)OC[C@@H]1Cc1cncn1C [pilocarpine],,reverse cognitive impairments in experimental animals (experimental animals): reverse cognitive impairments
CN1CCN(CC(=O)N2c3ccccc3C(=O)Nc3cccnc32)CC1 [pirenzepine],,produce memory impairments in experimental animals (experimental animals; M1 antagonist): produce memory impairments
